Experimental data: patent publication US8741653B2, “Single recombination system and methods of use” (priority 2008, dated 2014)

Columns and labels:
[1] = system: CEF cells
[2] = system: MVA; type: cell-based, Modified Vaccinia Ankara virus

With CN(C)[C@@H]1C(O)=C(C(N)=O)C(=O)[C@@]2(O)C(O)=C3C(=O)c4c(O)cccc4[C@@](C)(O)[C@H]3C[C@@H]12 [tetracycline] the “cytotoxic effect of tetracycline” value [1] was “pronounced cytotoxic effect” and the “reduction of MVA replication” value [2] was 1 log.
